Assay in all cases: NCI anticancer screen, dose series, 48 h
The subject of experiment [1] is M19-MEL melanoma.
Experiment [2] has as its system XF 498 CNS.
In experiment [3] the test system is KM20L2 colon.
The subject of experiment [4] is LXFL 529 NSCLC.
For experiment [5], the system named is DMS 273 small cell lung.
In experiment [6] the test system is DLD-1 colon.
Experiment [7] has as its system HS 578T breast.
The test system of experiment [8] is MDA-N.

Where “and” joins values, the source holds several entries; their conditions need not be identical. Equal values may be shown once.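 All cell lines were grown in 96-well plates and treated with compound for 48 hours. GI50 = concentration required for 50% inhibition of growth. TGI marks complete inhibition of growth.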

Turning to `CCC[CH2][Sn]([CH2]CCC)([S]c1cccc2cccnc12)[S]c1cccc2cccnc12`, the GI50 was 0.216 µM in experiment [1]; 0.101 µM in experiment [2]; 0.215 µM in experiment [3]; 0.039 µM in experiment [4]; 0.177 µM in experiment [5]; 0.172 µM in experiment [6]. Moreover, the TGI is 0.587 µM in experiment [1]; 0.26 µM in experiment [2]; 0.474 µM in experiment [3]; 0.163 µM in experiment [4]; 0.432 µM in experiment [5]; 0.382 µM in experiment [6].
As for `C1=C2/CC[C@H](Sc3ccccc3)C2C2(CCCCC/1)OCCO2` (some centres not stated), the TGI in experiment [1] is 33.5 µM; in experiment [2], 58.6 µM; in experiment [3], 37.1 µM; in experiment [5], greater than 100 µM; in experiment [6], greater than 100 µM.
For `Cc1cc(-c2nc(C(=O)Nc3cc4oc(N5CCOCC5)nc4nc3N3CC[C@@H](O)C3)co2)ccn1`, in experiment [7], the GI50 was 22.2 µM and the TGI was greater than 100 µM.
For the molecule `C=CCOc1ccc2c(C)cc(=O)oc2c1C`, the TGI in experiment [7] was 77.1 µM; in experiment [8] it was greater than 100 µM.
Take `NC(N)=NS(=O)(=O)c1ccc(Nc2c3ccccc3nc3c(C(=O)NCCO)cccc23)cc1`: the GI50 was 21.3 µM in experiment [7] and 17.8 µM in experiment [8].
The molecule `COc1ccc2c(c1)sc1nc(-c3ccccc3)c(-c3cccc4ccccc34)n12` returned a TGI in experiment [7] greater than 100 µM.
Regarding `Cc1c(C(=O)C/C(=N/NC(=O)c2ccccc2O)C(=O)Nc2ccccc2C(C)C)[n+](=O)c2ccccc2n1[O-]`, the TGI in experiment [1], in experiment [2], in experiment [3], in experiment [4], in experiment [5] and in experiment [6] was greater than 100 µM in each case.
With `Fc1ccc(NC(=S)SCc2ccc3c(c2)OCO3)cc1F`, the values for the TGI in experiment [7] and in experiment [8] were 88.7 µM and 34.7 µM, respectively.
Take `COC(=O)/C(C#N)=C1\NC(=O)c2ccccc21`: the TGI in experiment [1], in experiment [3], in experiment [4], in experiment [5] and in experiment [6] was greater than 100 µM throughout.
As to `Cc1ccc(CN2CCC(C(=O)Nc3ccc(-c4cc5ccccc5[nH]4)cc3)CC2)o1`, in experiment [7], the GI50 was 26.3 µM and the TGI was greater than 100 µM.
In the case of `O=C1/C(=C/c2ccc(O)c(O)c2)CCC/C1=C\c1ccc(O)c(O)c1`, the TGI was 12.3 µM in experiment [1]; 9.93 µM in experiment [2]; 23.8 µM in experiment [3]; greater than 39.9 µM in experiment [7]; 14.6 µM in experiment [8]; 7.2 µM in experiment [5]. The same molecule displayed a TGI in experiment [6] of 7.22 µM.
With `CN(C)c1ccc(/C=C\C2=[N+](C)c3ccccc3C2(C)C)cc1`, in experiment [7], the GI50 is 0.305 µM and the TGI is 8.68 µM.
Consider `COC([CH2][Hg][n]1cnc2c1c(=O)n(C)c(=O)n2C)CN1C(=O)c2ccccc2S1(=O)=O` (configuration not stated), for which the GI50 in experiment [7] and in experiment [8] was greater than 100 µM in each case. For the same molecule, the TGI in experiment [7] and in experiment [8] was greater than 100 µM each time.
On to `COC(=O)C1(C(C)C)CCc2c(OC)ccc(OC)c2C1=O` (configuration not stated), for which the TGI in experiment [1], in experiment [2], in experiment [3], in experiment [4] and in experiment [6] was greater than 100 µM in each case.
With `CCCCCCCCCCCC(=O)OCCOCCOCCOCCOCCOCc1ccccc1`, the TGI in experiment [1], in experiment [3], in experiment [4], in experiment [5] and in experiment [6] was greater than 100 µM each time.
In experiment [8], `Clc1ccccc1C(SCc1ccccc1)SCc1ccccc1` showed a TGI greater than 100 µM.
Turning to `CCN1/C(=C\c2cc[n+](CC)c3ccccc23)C=Cc2ccccc21`, in experiment [7], the GI50 is 0.33 µM and the TGI is 15.8 µM.
For `CC(=O)OC1OC([C@@H]2c3cccc(O)c3C(=O)c3c(O)cc(C)cc32)C(O)C(O)C1O` (some centres not stated), in experiment [7], the GI50 was less than 0.0103 µM.
For the molecule `CN1CCCCC1CCN1c2ccccc2Sc2ccc(Cl)cc21` (configuration not stated), in experiment [7], the GI50 was 2.25 µM and the TGI turned out to be 8.79 µM.
As to `CO/C(=N\N=C\c1ccc(C(F)(F)F)cc1)c1ccncc1`, the TGI in experiment [8] was greater than 10 µM.
As for `COC(=O)CC[N+]1=CCC(c2ccccc2)(c2ccccc2)O1`, the TGI in experiment [7] and in experiment [8] was greater than 100 µM each time.
Regarding `CCOC1Oc2ccccc2C(=O)/C1=C/Nc1ccc(C(C)=O)cc1` (configuration not stated), in experiment [7], the GI50 is 17.9 µM and the TGI was 52 µM.
Regarding `CN(C)C(=S)N=C(Nc1ccccc1)Nc1ccccc1`, the TGI in experiment [1], in experiment [3] and in experiment [5] was greater than 100 µM throughout.
`Cc1ccc2c(C)c3c(ccc4ccccc43)c[n+]2c1`: in experiment [7], the GI50 was 4.37 µM and the TGI is 22.3 µM.
Consider `Cc1cc(NS(=O)(=O)c2ccc(Nc3c4ccccc4nc4c(C(=O)N5CCN(CCOS(C)(=O)=O)CC5)cccc34)cc2)no1`, for which the TGI in experiment [1], in experiment [2], in experiment [3], in experiment [5] and in experiment [6] was greater than 100 µM throughout.
Turning to `C[C@@H](Oc1cc(-n2cnc3ccc(CN4CCN(C)CC4)cc32)sc1C(N)=O)c1ccccc1C(F)(F)F`, in experiment [7], the GI50 was 0.0853 µM and 0.035 µM; the TGI is 2.53 µM.
With `Nc1c(C(=O)c2cccc(CCS(N)(=O)=O)c2)cnn1-c1ccc(F)cc1`, in experiment [7], the GI50 was greater than 25 µM and the TGI was greater than 25 µM.
Regarding `Cc1nc2c(ccc3ncccc32)[nH]1`, the TGI in experiment [1], in experiment [3], in experiment [4], in experiment [5] and in experiment [6] was greater than 100 µM in each case.
